This is an account of results in patent US10751329B2, “Treatment of CDKL5 disorders with GSK3β inhibitor tideglusib” (priority 2016, dated 2020).

The subject of assay [1] is CDKL5 KO mice. The following applies: cited from earlier work.
The subject of assay [2] is CDKL5 KO mice. In words: Hippocampus-dependent learning and memory (Morris water maze, passive avoidance), juvenile and adult mice. It is filed as in vivo. The following applies: juvenile CDKL5 KO mice (treated from P25, P45).
Protocol: Starting from postnatal day 25 (P25) for juvenile mice (A) or postnatal day 90 (P90) for adult mice (B), Cdkl5^+/Y and Cdkl5^−/Y male mice were treated with vehicle or NP-12, administered by subcutaneous injection every other day for 20 days. Animals were sacrificed after the last injection (on P45 and P110 for juvenile and adult mice, respectively) or were behaviorally tested. […] Spatial learning and memory (probe test) assessed with the Morris water maze in vehicle treated and NP-12 treated Cdkl5+/Y and −/Y male mice aged P45 (A) and aged P110 (B). Passive avoidance test (PA) on vehicle treated and NP-12 treated Cdkl5+/Y and −/Y male mice aged P45 (C). Graphs show the latency time to enter the dark compartment on the first day and on the second day of the behavioral procedure. Values are represented as means±SE. *p<0.05, **p<0.01, ***p<0.001 as compared to the vehicle-treated Cdkl5+/Y condition; #p<0.05; ##p<0.01, ###p<0.001 as compared to the vehicle-treated Cdkl5−/Y condition (Duncan's test after ANOVA).
Assay [3] deals with hippocampal neurons from Cdkl5 KO mice. In words: Polarization and morphological analysis of MAP2-stained hippocampal neurons. The following applies: Cdkl5 KO hippocampal cultures; 1 μM, DIV10. Format: cell-based.
Description: (C-D) Graphs showing the percentage of polarized neurons (C) and the quantification of the length of the longest axon and dendrite (D) in treated and untreated in hippocampal cultures as in A. (E) Representative images of MAP2-stained hippocampal neurons as in A. Data are expressed as fold difference in comparison to hippocampal neurons from untreated Cdkl5^+/Y mice. Values are represented as means±SD. *p<0.05 as compared to the untreated Cdkl5^+/Y condition; #p<0.05; ##p<0.01 as compared to the untreated Cdkl5^−/Y samples (Duncan's test after ANOVA).
Hippocampal neurons were prepared from postnatal day 1 (P1) Cdkl5^−/Y and Cdkl5^X/Y male mice. […]
To define the degree of polarization of neuronal dendrites, we followed the method described by Horton et al. (FIG. 3) (Horton et al. 2006. Brain Cell. Biol. 35:29-38). Briefly, the measured lengths of dendrites (Lm) in each neuron (including the primary dendrite/axon with all its branches) were ranked highest to lowest. […]
The morphological analysis of hippocampal neurons was focused on two parameters: length of the longest dendrite (D1) and total dendritic length. To achieve this aim, dendritic length of MAP2-positive neurons were measured and quantified by tracing along each neuronal projection using the image analysis system Image Pro Plus (Media Cybernetics, Silver Spring, Md. 20910, USA). […]
Assay [4] concerns CDKL5 KO mice. In words: Synapse development (SYN and PSD-95 puncta in the DG), juvenile mice. Format: in vivo. The following applies: juvenile CDKL5 KO mice (treated from P25, P45). As to the method:
(§1) FIGS. 22A-22B show an experimental protocol for evaluating the effect of NP-12 in juvenile and adult mice. Starting from postnatal day 25 (P25) for juvenile mice (A) or postnatal day 90 (P90) for adult mice (B), Cdkl5^+/Y and Cdkl5^−/Y male mice were treated with vehicle or NP-12, administered by subcutaneous injection every other day for 20 days. Animals were sacrificed after the last injection (on P45 and P110 for juvenile and adult mice, respectively) or were behaviorally tested. Abbreviations: +/Y: wildtype male mice; −/Y: Cdkl5 KO male mice; P, postnatal day.
Values are represented as means±SE. *p<0.05, **p<0.01, ***p<0.001 as compared to the vehicle-treated Cdkl5+/Y condition; #p<0.05; ##p<0.01, ###p<0.001 as compared to the vehicle-treated Cdkl5 −/Y condition (Duncan's test after ANOVA).

Assay [5] has as its system Cdkl5^−/Y mice. In words: Neuronal survival in the dentate gyrus (cleaved caspase-3, DCX immunohistochemistry). Format: in vivo. Particulars: 20 mg/kg s.c. every other day from P25, P45. An excerpt: (B,C) Examples of sections processed for DCX immunostaining from the dentate gyrus (DG) of untreated and treated Cdkl5^+/Y and Cdkl5^−/Y male mice. (C). […] Scale bar=30 μm; type 2b/3 cells and immature neurons were counted separately. (B) Number of DCX-positive type 2b/3 precursor cells and DCX-positive immature neurons in the DG of mice of untreated (+/Y n=3, −/Y n=3) and treated (+/Y n=3, −/Y n=3) Cdkl5 mice. Values in A represent totals for one DG (mean±SD), data in B are expressed as number of cells/100 μm. *p<0.05; **p<0.01 as compared to the untreated Cdkl5^+/Y condition; ##p<0.01; ###p<0.001 as compared to the untreated Cdkl5^−/Y samples (Duncan's test after ANOVA). Abbreviations: GR, granular layer; SGZ, subgranular zone.
The day of birth was designed as postnatal day (P) zero (P0) and animals with 24 hours of age were considered as one-day-old animals (P1). After weaning, mice were housed three to five per cage and were on a 12-hour (h) light/dark cycle in a temperature-controlled environment with food and water provided ad libitum. […]
One out of 6 sections from the hippocampal formation were used for immunohistochemistry for cleaved caspase-3 (1:200, anti-cleaved caspase-3 rabbit polyclonal Ab, Cell Signaling Technology), doublecortin (1:100, anti-DCX goat polyclonal Ab, Santa Cruz Biotechnology), synaptophysin (1:1000, anti-SYN (SY38) mouse monoclonal Ab, MAB 5258, Merck Millipore) and PSD-95 (1:1000, anti-PSD-95 rabbit polyclonal Ab, Abcam) or double fluorescence immunohistochemistry for synaptophysin, and PSD-95. […]
The total number of positive cells in the DG (cleaved caspase-3, DCX) was estimated by multiplying the total number counted in the series of sampled sections by the inverse of the section sampling fraction (ssf=⅙). The total number of cells of each phenotype was estimated by multiplying the number counted in the series of sections by the inverse of the section sampling fraction (ssf=⅙).

The subject of assay [6] is Cdkl5^−/Y mice. In words: Granule cell density, number and layer volume in the dentate gyrus. Format: in vivo. Particulars: 20 mg/kg s.c. every other day from P25, P45.
Assay [7] has as its system Cdkl5^−/Y mice. In words: Hippocampal connectivity: SYN and PSD-95 immunoreactivity and puncta in the molecular layer of the DG. Format: in vivo. The following applies: 20 mg/kg s.c. every other day from P25, P45. The procedure:
After weaning, mice were housed three to five per cage and were on a 12-hour (h) light/dark cycle in a temperature-controlled environment with food and water provided ad libitum. Starting from postnatal day 25 (P25), Cdkl5^+/Y WT and Cdkl5^−/Y KO male mice were treated with vehicle (corn oil; Sigma-Aldrich) or NP-12 (20 mg/kg; Sigma-Aldrich), administered by subcutaneous injection every other day for 20 days. Animals were sacrificed 4 hours after the last injection on P45.

The subject of assay [8] is Cdkl5^−/Y mice. In words: Passive avoidance (PA) test. It is filed as in vivo. Particulars: at the end of treatment.
Protocol: Starting from postnatal day 25 (P25), Cdkl5^+/Y WT and Cdkl5^−/Y KO male mice were treated with vehicle (corn oil; Sigma-Aldrich) or NP-12 (20 mg/kg; Sigma-Aldrich), administered by subcutaneous injection every other day for 20 days. […] For the PA test we used a tilting-floor box (47×18×26 cm) divided into two compartments by a sliding door and a control unit incorporating a shocker (Ugo Basile, Italy). This classic instrument for Pavlovian conditioning exploits the tendency in mice to escape from an illuminated area into a dark one (step-through method). On the first day mice were individually placed into the illuminated compartment. After 60 seconds of habituation period, the connecting door between the chambers opened. In general, mice step quickly through the gate and enter the dark compartment because mice prefer to be in the dark. Upon entering the dark compartment, mice received a brief foot shock (0.7 mA for 3 seconds) and were removed from the chamber after 15 seconds of latency. If the mouse remained in the light compartment for the duration of the trial (358 s), the door closed and the mouse was removed from the light compartment. […] After a 24 hour retention period, mice were placed back into the light compartment and the time it took them to re-enter the dark compartment (latency) was measured up to 358 seconds.
In assay [9] the test system is Cdkl5 KO hippocampal neurons. In words: Synaptophysin (SYN) puncta in hippocampal neuronal cultures. Format: cell-based, mice. The following applies: 1 μM every other day, DIV7 to DIV12.
Protocol: Immunostaining for cultured hippocampal neurons were performed with the following procedure. Cells were fixed in 4% PFA+4% sucrose in PBS for 20 min and washed five times in PBS. After permeabilization with PBST cells were incubated overnight at 4° C. o/n with the following antibodies: rabbit polyclonal anti-MAP2 (1:100, Millipore) and SYN (SY38) antibody (1:1000, MAB 5258, Merck Millipore). Sections were then incubated for 2 h at room temperature with a FITC-conjugated goat anti-mouse IgG (1:100; Sigma-Aldrich) and a Cy3-conjugated anti-rabbit IgG (1:100, Jackson Immunoresearch).
To develop the cultures the hippocampal neuronal cells were harvested on postnatal day 1, which was considered division 0 (DIV 0) and cultured in vitro for the remainder of the experiment. […] Results are presented as mean±SD. Data were analyzed with Duncan's test after ANOVA. A probability level of p<0.05 was considered to be statistically significant. *P, 0.05, **P<0.01, ***p<0.001 as compared to the untreated wild-type (Cdkl5+/Y) condition; #p<0.05, ##p<0.01 ###p<0.001 as compared to the untreated Cdkl5 KO (−/Y) samples.
Assay [10] has as its system GSK3β-dependent targets. In words: Western blot of GSK3β-dependent targets (β-catenin, P-CRMP2 Thr-514, P-CREB Ser-133) in hippocampus, juvenile and adult mice. Format: in vivo. The following applies: juvenile CDKL5 KO mice (treated from P25, P45). (In western blotting, separated proteins are transferred to a membrane and probed.)
Description: Data are expressed as percentage of vehicle treated Cdkl5+/Y mice of the same age. Values are represented as means±SE. *p<0.05, **p<0.01, ***p<0.001 as compared to the vehicle-treated Cdkl5 +/Y condition; #p<0.05; ##p<0.01, ###p<0.001 as compared to the vehicle-treated Cdkl5 −/Y condition (Duncan's test after ANOVA).
For assay [11], the system named is Cdkl5^−/Y mice. In words: Spine density and morphology of Golgi-stained granule cells. Format: in vivo. The following applies: 20 mg/kg s.c. every other day from P25, P45.
Protocol: (B) Images of Golgi-stained dendritic branches of granule cells of untreated and treated Cdkl5^+/Y and Cdkl5^−/Y male mice. […] The day of birth was designed as postnatal day (P) zero (P0) and animals with 24 hours of age were considered as one-day-old animals (P1). After weaning, mice were housed three to five per cage and were on a 12-hour (h) light/dark cycle in a temperature-controlled environment with food and water provided ad libitum. […] Animals were sacrificed 4 hours after the last injection on P45. Brains were Golgi-stained using the FD Rapid Golgi Stain™ Kit (FD NeuroTechnologies, Inc., Columbia, Md., USA). […] In Golgi-stained sections, spines of granule cells were counted using a 100× oil immersion objective lens. Dendritic spine density was measured by manually counting the number of dendritic spines on dendritic segments in the inner and outer half of the molecular layer and expressed as the number of dendritic spines per 20 μm dendritic length. The dendritic spine length was measured by manually drawing a vertical line from the tip of the protrusion to the point where it met the dendritic shaft. The number of spine clusters was counted manually on dendritic segments in the inner and outer half of the molecular layer and expressed as number of spine clusters per 20 μm dendritic length. […] The number of spines belonging to the different group was counted.
For assay [12], the system named is CDKL5 KO mice. In words: Neuronal survival and maturation (DCX-positive neurons, dendritic length and branches), juvenile and adult mice. It is filed as in vivo. The following applies: juvenile CDKL5 KO mice (treated from P25, P45). As to the method:
as §1
FIGS. 25A-25B show the quantification of the number of DCX-positive postmitotic neurons in the dentate gyrus of vehicle treated and NP-12 treated Cdkl5+/Y and −/Y male mice aged P45 (A) and aged P110 (B). Data are expressed as number of cells/100 μm. Values are represented as means±SE. *p<0.05, **p<0.01, ***p<0.001 as compared to the vehicle-treated Cdkl5+/Y condition; #p<0.05; ##p<0.01, ###p<0.001 as compared to the vehicle-treated Cdkl5 −/Y condition (Duncan's test after ANOVA).
FIGS. 26A-26B show the mean total dendritic length and mean number of dendritic branches of newborn granule cells of vehicle treated and NP-12 treated Cdkl5+/Y and −/Y male mice aged P45 (A) and aged P110 (B).

The test system of assay [13] is Cdkl5^−/Y mice. In words: Dendritic development of granule cells (DCX and Golgi staining). It is filed as in vivo. The following applies: 20 mg/kg s.c. every other day from P25, P45. The procedure: After weaning, mice were housed three to five per cage and were on a 12-hour (h) light/dark cycle in a temperature-controlled environment with food and water provided ad libitum. […] Animals were sacrificed 4 hours after the last injection on P45.

The subject of assay [14] is GSK3β. In words: Western blot of P-GSK3β-Ser9, GSK3β and β-catenin in hippocampal extracts of treated mice. The following applies: 20 mg/kg s.c. every other day from P25, P45.
Assay [15] deals with GSK3β Ser9-phosphorylation in hippocampal neurons from Cdkl5 KO mice. In words: Western blot of P-GSK3β-Ser9 in hippocampal neuronal cultures (DIV10). Particulars: chronic treatment 1 μm from DIV2, DIV10. Format: cell-based.
Protocol: Hippocampal cultures were treated with 1 μm NP-12 starting from DIV2. […] Values are represented as means±SD. *p<0.05 as compared to the untreated Cdkl5^+/Y condition; #p<0.05; ##p<0.01 as compared to the untreated Cdkl5^−/Y samples (Duncan's test after ANOVA).
Hippocampal neurons were prepared from postnatal day 1 (P1) Cdkl5^−/Y and Cdkl5^X/Y male mice. Briefly, hippocampi were dissected from mouse brains under a dissection microscope and treated with trypsin (Sigma Aldrich) for 15 min at 37° C. and DNase (Sigma Aldrich) for 2 min at room temperature before triturating mechanically with fire-polished glass pipette to obtain a single-cell suspension. Approximately 1.2×10^5 cells were plated on coverslips coated with poly-1-lysine in 12-well plates and cultures in Neurobasal medium (Invitrogen) supplemented with B27 (Invitrogen) and glutamine (Invitrogen). Cells were maintained in vitro at 37° C. in a 5% CO2-humified incubator and fixed for immunostaining or Western Blot analysis at 10 days after plating (DIV10). 1 μM NP-12 (Sigma) was administrated on alternate days.
For Western Blot analysis hippocampal neurons at DIV10 were lysed in ice-cold RIPA lysis buffer (50 mM Tris-HCl pH 7.4, 150 mM NaCl, 1% Triton-X100, 0.5% sodium deoxycholate, 0.1% SDS) supplemented with 1 mM PMSF and 1% proteases and phosphatases inhibitor cocktail (Sigma). […]

SMILES strings stand for the structures.

Turning to `Cn1cc(C2=C(c3ccc(Cl)cc3Cl)C(=O)NC2=O)c2ccccc21` [SB216763], in assay [1], the hippocampal development result was “restore hippocampal development by restoring dendritic development, spine morphology and distribution, survival of newborn granule cells, and connectivity”.
Turning to `O=c1sn(-c2cccc3ccccc23)c(=O)n1Cc1ccccc1` [NP-12, tideglusib], the “hippocampus-dependent behavior defects (learning and memory)” value in assay [2] is “corrects hippocampus-dependent behavior defects in juvenile”. Further, in assay [3], the “axon and dendrite maturation (length of the longest axon and dendrite)” value was “had positive effects on correct axon and dendrite maturation”; the “percentage of polarized neurons” value is “efficiently ameliorated the percentage of polarized neurons”. Besides, the “synapse development (SYN and PSD-95 puncta)” value in assay [4] is given as “restores synapse development in juvenile CDKL5 KO mice”. In addition, the “cell death: cleaved caspase-3 positive cells in the dentate gyrus” value in [5] (Cdkl5 KO male mice) is “completely restored”. Besides, the “survival rate of the postmitotic granule cells” value in assay [5] (Cdkl5^−/Y mice) is listed as “restores the survival rate of the postmitotic granule cells”. Besides, in assay [5] (treated mice vs untreated Cdkl5^+/Y), the “number of DCX-positive immature neurons in the dentate gyrus” value is “underwent an increase in the number of DCX-positive neurons, that became similar to that of untreated Cdkl5^+/Y littermates”. Further, in [6], the “granule cell density in the dentate gyrus” value was “fully restored”, the “total granule cell number in the dentate gyrus” value is “fully restored” and the “volume of the granule cell layer” value was “without affecting the volume of the granule cell layer”. For the same compound, in assay [7], the “density of PSD-95 puncta in the molecular layer of the DG” value is “completely restored”, the “density of SYN puncta in the molecular layer of the DG” value is “completely restored”, the “optical density of PSD-95 immunoreactivity in the molecular layer of the DG” value was “fully rescued” and the “optical density of SYN immunoreactivity in the molecular layer of the DG” value is reported as “fully rescued”. For the same compound, the “latency time to enter the dark compartment, second day (test)” value in assay [8] (Cdkl5^−/Y mice, 24 hours after shock) is “underwent an increase and there was no significant difference in comparison to untreated Cdkl5^+/Y mice”. Further, the “latency time to enter the dark compartment, first day” value in assay [8] (all groups) is on record as “all groups showed similar step-through latencies”. For the same compound, the “number of synaptophysin (SYN) puncta” value in assay [9] is listed as “completely restore”. For the same compound, the “GSK3β-dependent targets (β-catenin, P-CRMP2 Thr-514, P-CREB Ser-133)” value in [10] is listed as “restores GSK3β-dependent targets in juvenile”. The “dendritic spine density of granule cells” value in assay [11] is listed as “no effect on spine density”. In addition, the “spine shape morphology (percentage of immature and mature spines)” value in assay [11] (Cdkl5 KO mice) is listed as “completely restored”. Moreover, in assay [12], the “neuronal survival and maturation” value was “restores neuronal survival and maturation in juvenile”. In addition, in assay [13], the “dendritic length of newborn (DCX-positive) granule cells” value is on record as “increase in both parameters that became similar or even greater than those of untreated Cdkl5^+/Y mice”, the “dendritic length of older Golgi-stained granule cells” value is on record as “completely rescued”, the “number of dendritic branches of newborn (DCX-positive) granule cells” value was “increase in both parameters that became similar or even greater than those of untreated Cdkl5^+/Y mice” and the “number of dendritic segments of older Golgi-stained granule cells” value is on record as “completely rescued”. Further, in assay [14], the “total GSK3β levels in hippocampus” value is “no effect”. In [14] (Cdkl5^−/Y male mice), the “Ser9-phosphorylated GSK3β levels in hippocampus” value is “increased Ser9-phosphorylated GSK3β levels in Cdkl5^−/Y mice that became even higher to those of the untreated Cdkl5^+/Y counterparts” and the “β-catenin levels in hippocampus” value is recorded as “complete recovery of β-catenin levels”. In assay [15], the “GSK3β Ser9-phosphorylation” value is reported as “completely restores GSK3β Ser9-phosphorylation”.
